{
  "source": "patent US7998985B2",
  "about": "“1,5-diphenyl-3-pyridinylamino-1,5-dihydropyrrolidin-2-one as CB1 receptor modulator” (Eli Lilly and Company, priority 2006, dated 2011)",
  "key": {"human CB2 receptor": {"molecular_target": "T1, human CB2 receptor (Homo sapiens, UniProt P34972)", "T1 construct": "purchased Applied Cell Sciences, Gaithersburg, Md; PerkinElmer Life Sciences, Boston, Mass; host or cells: Sf9 insect cells (recombinant expression), membranes", "T1 sequence (P34972 whole entry)": "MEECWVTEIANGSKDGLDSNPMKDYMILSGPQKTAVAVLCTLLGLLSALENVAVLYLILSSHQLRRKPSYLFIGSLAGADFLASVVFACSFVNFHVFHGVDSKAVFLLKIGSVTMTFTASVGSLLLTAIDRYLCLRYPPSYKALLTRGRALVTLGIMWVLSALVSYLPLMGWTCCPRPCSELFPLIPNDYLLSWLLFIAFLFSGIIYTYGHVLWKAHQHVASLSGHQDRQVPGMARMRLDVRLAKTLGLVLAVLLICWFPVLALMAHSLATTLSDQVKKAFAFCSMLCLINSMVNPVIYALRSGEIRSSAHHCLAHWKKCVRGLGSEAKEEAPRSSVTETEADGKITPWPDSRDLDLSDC", "assay": "Antibody-capture SPA GTP-γ-35S binding, antagonist/inverse agonist mode, human CB2 (Sf9 membranes)", "format": "biochemical", "conditions": "Human CB2 (Sf9 cells) membranes, Table 1"}, "Male Sprague Dawley rats": {"tested_on": "Male Sprague Dawley rats", "assay": "cFos activation in rat brain, alone and with clozapine", "format": "in vivo", "excerpt": "Characterize Example 2 for its ability to activate gene expression and neurochemical efflux in cortical and subcortical regions and to interact with the prototypical atypical antipsychotic agent clozapine.\nMethods: House Male Sprague Dawley rats (155-175 g) for 1 week prior to experimentation. Prepare Example 2 in a vehicle suspension of 1% Sodium carboxymethyl cellulose, 0.5% Sodium lauryl sulfate, 0.05% Antifoam, 0.085% Povidone and administer, to rats (e.g., male Sprague Dawley rats, 155-175 g) p.o. (a dose of 1 or 10 mg/kg). Control rats receive vehicle. Administer clozapine (Sigma) 1 hour later at a concentration of 8 mg/mL in a vehicle solution of 0.4% lactic acid at a dose of 8 mg/kg s.c. Sacrifice animals (n=7-8 per group) by decapitation 2 hours after administration of clozapine or vehicle for clozapine. Remove rapidly whole brains and immediately immerse in isopentane (2-methyl butane) over dry ice. Cut coronal sections through the prefrontal cortex (PFC), nucleus accumbens (NAc) and dorsolateral striatum (DL-Str) at 14 μm and perform Fos immunohistochemistry. Assess atypicality index (Robertson et al., 1994) using the following formula: Atypical Index=(NAcD−NAcV)−(DL-StrD−DL-StrV) where the average number of Fos-li neurons in NAc=nucleus accumbens, D=drug, V=vehicle, DL-Str=dorsolateral striatum. Analyze data using a one-way ANOVA followed by Newman-Keul's post hoc test (Graph Pad Prism 4.03). Set the level of significance at P<0.05."}, "[1]": {"tested_on": "alcohol-preferring (P) rats", "assay": "Progressive ratio responding maintained by ethanol", "format": "in vivo, rat", "conditions": "female P rats, progressive ratio schedule", "excerpt": "Assess the ability of Example 2 to reduce the motivational drive controlling ethanol intake.\nMethods: Study female alcohol-preferring (P) rats under a progressive ratio schedule in which responding produces 15% ethanol (v/v). Under the progressive ratio schedule, the response requirement for ethanol delivery increases from 1 to 2 and then increments by 2 after 3 ethanol presentations."}},
  "data": [
    {"smiles": "CC(C)(N[C@@H]1C[C@H](c2cccc(OC(F)(F)F)c2)N(c2ccc(C(F)(F)F)cc2)C1=O)c1ccc(C(F)(F)F)nc1.Cc1ccc(S(=O)(=O)O)cc1", "note": "[Example 2, (3R,5R)-3-[1-methyl-1-(6-trifluoromethyl-pyridin-3-yl)-ethylamino]-1-(4-trifluoromethyl-phenyl)-5-(3-trifluoromethoxy-phenyl)-pyrrolidin-2-one, 4-methylbenzenesulfonate (1:1)]", "values": [
      {"measurement": "Inverse Agonist Potency (Kb, nM)", "setting": "human CB2 receptor", "value": "No measurable activity"},
      {"measurement": "effect on clozapine-induced Fos reactivity", "setting": "Male Sprague Dawley rats; 1 and 10 mg/kg p.o. given with clozapine 8 mg/kg s.c.", "value": "enhancing the effects of clozapine alone"},
      {"measurement": "cortical and subcortical Fos reactivity, compound alone", "setting": "Male Sprague Dawley rats; Example 2 1 or 10 mg/kg p.o.", "value": "tend to or significantly enhance cortical and subcortical Fos reactivity"},
      {"measurement": "atypicality (ventral vs. dorsal striatal Fos impact)", "setting": "Male Sprague Dawley rats; Example 2 added to clozapine", "value": "a neural signature of greater atypicality"},
      {"measurement": "ethanol-seeking behavior and ethanol consumed", "setting": "[1]; 15% ethanol, dose-dependently", "value": "Reduce ethanol-seeking behavior and the consumption of ethanol consumed"},
      {"measurement": "reduction of breakpoint", "setting": "[1]; F(4,20)=4.52, p=0.009", "value": "in a dose-dependent manner"}
    ]}
  ]
}
